Consider one compound from PMC7481357, “N-terminal Myristoylation Enhanced the Antimicrobial Activity of Antimicrobial Peptide PMAP-36PW” (Frontiers in Cellular and Infection Microbiology, 2020).

The test system of this test is L. monocytogenes CICC 21634. Kind of test: Inhibition zone assay (disk diffusion). It counts as cell-based, Listeria monocytogenes. Also on record: key: +, means the peptide has antibacterial activity. The settings on record: disk 10 μg peptide, 18 h at 37°C, * P < 0.05, ** P < 0.01 vs PMAP-36PW. On the procedure: The inhibition zone assay was performed through the disk diffusion to evaluate the antimicrobial activity of Myr-36PW in vitro (Dunne et al., [2017]). The four above-mentioned bacterial strains were used as experimental strains, with L. monocytogenes CICC 21634 cultured in BHI medium, and P. aeruginosa GIM 1.551 cultured in TSB medium. The bacterial cells were cultured for 12 h at 37°C in the appropriate medium, and the bacterial cell suspension was spread on LB agar. The disks containing 10 μg of peptides (1 μg/μL) were attached to the solid medium and incubated at 37°C for 18 h. Finally the diameter of the inhibition zone was measured.
(In general: A growth-free zone around the sample is the usual read-out of agar diffusion tests.)

Residues, ends and D or L forms follow the SMILES beside them. *: point of attachment. Myristoyl = CCCCCCCCCCCCCC(=O)*

For the compound `CCCCCCCCCCCCCC(=O)NCC(=O)NCC(=O)N[C@@H](CCCNC(=N)N)C(=O)N[C@@H](Cc1ccccc1)C(=O)N[C@@H](CCCNC(=N)N)C(=O)N[C@@H](CCCNC(=N)N)C(=O)N[C@@H](CC(C)C)C(=O)N[C@@H](CCCNC(=N)N)C(=O)N[C@@H](CCCCN)C(=O)N[C@@H](CCCCN)C(=O)N[C@H](C(=O)N[C@@H](CCCNC(=N)N)C(=O)N[C@@H](CCCCN)C(=O)N[C@@H](CCCNC(=N)N)C(=O)N[C@@H](CC(C)C)C(=O)N[C@@H](CCCCN)C(=O)N[C@@H](CCCCN)C(=O)N[C@H](C(=O)NCC(=O)N[C@@H](CCCCN)C(=O)N[C@H](C(=O)N[C@@H](CC(C)C)C(=O)N[C@@H](CCCCN)C(=O)N[C@@H](Cc1c[nH]c2ccccc12)C(=O)N[C@H](C(=O)N[C@@H](Cc1c[nH]c2ccccc12)C(=O)N[C@@H](Cc1c[nH]c2ccccc12)C(=O)N[C@H](C(=O)N[C@H](C(=O)NCC(=O)N[C@@H](CO)C(=O)N[C@H](C(=O)N1CCC[C@H]1C(=O)N[C@@H](CC(C)C)C(=O)NCC(=O)N[C@@H](CS)C(=O)NCC(=O)O)[C@@H](C)CC)C(C)C)[C@@H](C)CC)[C@@H](C)CC)C(C)C)[C@@H](C)CC)[C@@H](C)O` [Myr-36PW] (Myristoyl-GGRFRRLRKKTRKRLKKIGKVLKWIWWIVGSIPLGCG-OH; C-terminus assumed), the “In vitro antibacterial activity (disk diffusion)” value is “+**”.
